From paper PMC4057422, “Apoptotic Death of Prostate Cancer Cells by a Gonadotropin-Releasing Hormone-II Antagonist” (PLoS ONE, 2014)
Like-named read-outs stand apart in the source and are kept apart here. Square brackets hold non-standard residues; d marks the D form. Ends that are not written are not given here. Peptide text beside a SMILES is read from it. dPhe(4-Cl) = N[C@H](Cc1ccc(Cl)cc1)C(=O)O; d2Nal = N[C@H](Cc1ccc2ccccc2c1)C(=O)O; dCit = NC(=O)NCCC[C@@H](N)C(=O)O; d3Pal = N[C@H](Cc1cccnc1)C(=O)O

Tests used:
PC3 cells [1] = conditions: FITC-conjugated form, prostate cancer cells; ref [28]; cited from earlier work
Excerpt: In previous reports, we and other groups observed that radiolabeled GnRH-II bound to prostate cancer cells through interaction with an approximately 80-kDa protein whose identity was designated as glucose-regulated protein 75 (GRP75) based on liquid chromatography-electrospray ionization-tandem mass spectrometry, [28], [29]. […] Since GRP75 is found predominantly in mitochondria, the final destination of SN09-2 may not be the cell surface. To explore the subcellular location of the antag ...

human T cells = conditions: ref [20]; cited from earlier work
Excerpt: In most vertebrates, the other type of GnRH, called GnRH-II, is identified, which is structurally conserved in evolution from fish to mammals [12]–[14]. GnRH-II is expressed not only in the brain but also in peripheral reproductive and immune tissues. This wide expression pattern may confer a variety of physiological functions on the peptide. Similar to GnRH-I, GnRH-II is able to regulate reproduction in females by stimulating the secretion of LH and FSH [16], [17].

PC3 xenograft tumor = conditions: cited from earlier work; for growth of tumor formed by implanted PC3 cells: previous studies, ref [27], [28]
Protocol: PC3 cells were implanted into the flanks of nude mice. After tumor formation, SN09-2 was injected into the mice at different concentrations for 25 consecutive days. […] In the group treated with 0.1 mg SN09-2, tumor volumes were reduced by 27%, compared with the vehicle-treated group (Fig. 7A, B). […] The di ... || Both GnRH-I agonists and antagonists are able to inhibit the growth of cancer cells in sex hormone-regulated tissues including ovarian cancer and prostate cancer, by directly stimulating cell death pathways as well as by decreasing gonadotropin and sex hormone levels, [32], [33]. Because of the sequence similarity between GnRH-I and GnRH-II, GnRH-II and its antagonists are considered to exert similar effects on these types of cancer, although its receptor has not been identified in human and its action mechanisms have not been well elucidated. In some reports, GnRH-II has been shown ...

prostate cancer cells [2] = conditions: cited from earlier work; for displacement of radiolabeled GnRH-II binding: various human prostate cancer cells, ref [27]
Excerpt: GnRH-II is likely to function on prostate cancer cells by interacting with unknown proteins, based on our previous observation that radiolabeled GnRH-II was able to bind various human prostate cancer cells.

ovarian cancer cells = conditions: cited from earlier work
Excerpt: GnRH-II is likely to function on prostate cancer cells by interacting with unknown proteins, based on our previous observation that radiolabeled GnRH-II was able to bind various human prostate cancer cells. […] Because of the sequence similarity between GnRH-I and GnRH-II, GnRH-II and its antagonists are considered to exert similar effects on these types of cancer, although its receptor has not been identified in human and its action mechanisms have not been well elucidated. In some reports, GnRH-II has been shown ...

PC3 cells [3] = format: cell-based, human; conditions: for growth inhibition of PC3 cells: 10 µM
Protocol: (§1) Cells were seeded in 12-well plates in triplicate (1×10^4 cells/well). After 24 h, cells were treated with the indicated concentrations of GnRH-II antagonists solubilized in 0.1% DMSO every 24 h for the indicated number of days. Then, cells were washed with phosphate-buffered saline (PBS), dissociated with trypsin/EDTA, and re-suspended in 500 µl complete growth media. Trypan blue (0.4%) dye-excluding cells were counted under an inverted microscope (Olympus, Tokyo, Japan).

DU145 cells = assay: Cell viability assay, DU145; format: cell-based, human; conditions: 10 µM, 5% serum, 3 days
Protocol: as §1

[4] = target: T1, green monkey GnRHR-II (gmGnRHR-II) (Chlorocebus aethiops, UniProt Q95MH6); assay: Reporter gene assay (SRE-luc), antagonism of GnRH-II at gmGnRHR-II; format: cell-based
T1 construct: expressed in transfected cells; host or cells: CV-1 cells
T1 sequence (Q95MH6 1-379): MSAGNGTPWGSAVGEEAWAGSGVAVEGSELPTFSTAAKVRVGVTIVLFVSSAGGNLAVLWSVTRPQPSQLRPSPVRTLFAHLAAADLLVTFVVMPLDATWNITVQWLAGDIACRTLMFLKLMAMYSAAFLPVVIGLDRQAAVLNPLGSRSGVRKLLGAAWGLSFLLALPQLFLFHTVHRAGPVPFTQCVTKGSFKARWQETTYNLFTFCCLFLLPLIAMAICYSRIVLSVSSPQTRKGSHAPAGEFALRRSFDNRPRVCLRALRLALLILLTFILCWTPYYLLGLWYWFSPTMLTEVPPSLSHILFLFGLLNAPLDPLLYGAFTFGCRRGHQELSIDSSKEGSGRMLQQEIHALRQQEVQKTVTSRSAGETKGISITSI
Protocol: (§2) CV-1 Cells were culture overnight in 24-well plates and subsequently transfected with liposome complex containing pGL3/SRE-luc plasmids with bull frog GnRHR-II (bfGnRHR-II) or green monkey GnRHR-II (gmGnRHR-II). Another 48 h later, cells treated with GnRH-II (1 nM for bfGnRHR-II, 10 nM gmGnRHR-II) and different concentration of SN09-2 or Trp-1 for 6 h were washed with PBS and solublized with lysis buffer. Luciferase activity of cell extracts was determined using the standard luciferase assay system from BioTek Instrument, Inc. (Winooski, VT). To determine transfection efficiency, luciferase activities were normalized to the β-gal activity. All data are calculated from at least three independent experiments normalized to untreated groups.

[5] = Tolerability in nude mice (histology, blood chemistry, injection site); format: in vivo, male athymic nude mice (BALB/c-nu)
Protocol: Six-week-old male athymic nude mice (BALB/c-nu) were obtained from Harlan (Houston, TX). Mice were housed under specific pathogen-free conditions in an individually ventilated caging system. All experimental procedures were performed after receiving approval from the Institutional Animal Care and Use Committee of Clinical Research Institute in Seoul National University Hospital. PC3 cells (6×10^6) were injected into the right flank of the mice. Ten days after cell injection, tumors with volumes of around 20–25 mm^3 developed in most mice; tumor volumes were measured every day. Tumor volumes were determined by two perpendicular dimensions [length (L) and width (W)] and the height (H), measured using Vernier calipers (the formula is V = (π/6) × (W×L×H). From this time, SN09-2 (acetic acid form) dissolved in 5% N,N-dimethylacetamide (DMA), 10% glycerol, and 85% distilled water which is biocompatible solvent were subcutaneously injected into the mice for 25 consecutive days. The tumor size in each mouse was measured every day. Six to seven mice were used for each experimental group.

[6] = Dissolution in solvents / at the injection site; format: physicochemical
[7] = target: bull frog GnRHR-II (bfGnRHR-II) (Aquarana catesbeiana, UniProt Q9DE60); assay: Reporter gene assay (SRE-luc), antagonism of GnRH-II at bfGnRHR-II; format: cell-based; conditions: CV-1 cells, GnRH-II 1 nM, antagonist 6 h, luciferase normalized to β-gal, at least three independent experiments
Protocol: as §2

prostate cancer cells [8] = conditions: ref [28]; cited from earlier work
Excerpt: (§3) Mitochondrial proteins play pivotal roles in organelle-specific functions such as energy conversion, calcium hemeostasis, ROS generation, and electron transport, [40]. The disturbance of such mitochondrial functions is a critical step towards cell death through the activation of either apoptotic or autophagic pathways, [42]. GRP75 a mitochondrial chaperon is an essential protein for mitochondria biogenesis by refolding and sorting mitochondrial proteins. Elevation of GRP75 is easily observed in various cancer cells, while knockdown of the protein induces mitochondrial dysfunc ...

cytochrome c (PC3 cells) = conditions: ref [28]; cited from earlier work
Excerpt: as §3

caspase-3 (PC3 cells) = conditions: ref [28], cited from earlier work
Excerpt: as §3, with “Next, we examined caspase-3 activation by SN09-2. […] We also investigated caspase-3 cleavage in LNCaP and DU145 cells. […] Immunocytochemistry for actively cleaved caspase- ... || Mitochondrial” for “Mitochondrial”

Chain of bull frog GnRHR-II (bfGnRHR-II) (Q9DE60 entry or part of it): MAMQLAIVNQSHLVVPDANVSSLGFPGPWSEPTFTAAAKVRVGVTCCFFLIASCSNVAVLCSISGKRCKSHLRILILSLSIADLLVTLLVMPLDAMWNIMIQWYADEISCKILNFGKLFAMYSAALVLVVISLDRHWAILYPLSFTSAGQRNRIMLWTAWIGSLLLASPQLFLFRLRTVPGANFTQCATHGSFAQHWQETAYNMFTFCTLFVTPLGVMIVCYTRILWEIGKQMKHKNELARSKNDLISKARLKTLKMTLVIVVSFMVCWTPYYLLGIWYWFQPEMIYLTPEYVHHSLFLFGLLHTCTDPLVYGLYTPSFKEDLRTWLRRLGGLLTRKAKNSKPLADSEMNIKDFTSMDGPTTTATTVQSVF

FITC-conjugated GnRH-II: FITC-conjugated GnRH-II (QHWSHGWYPG; ends and bridges not checked; also: FITC-conjugated, site not given here; UniProt O43555 24-33, looked up)
mitochondrial accumulation in presence of unlabeled GnRH-II (PC3 cells [1]): attenuated by unlabeled GnRH-II

cetrorelix
block of GnRH-II-induced laminin receptor expression (human T cells): not blocked
growth of tumor formed by implanted PC3 cells (PC3 xenograft tumor): very weak effect on tumor growth

GnRH-II: the other type of GnRH, structurally conserved in evolution from fish to mammals (QHWSHGWYPG; ends and bridges not checked; UniProt O43555 24-33, looked up)
laminin receptor expression (human T cells): stimulates laminin receptor expression
inhibition of proliferation of prostate cancer cells (prostate cancer cells [2]; ref [26], [27]): inhibit the proliferation
displacement of radiolabeled GnRH-II binding (prostate cancer cells [2]): displaced by unlabeled GnRH-II
inhibition of proliferation of ovarian cancer cells (ovarian cancer cells; ref [26], [27]): inhibit the proliferation
anti-proliferative effect in ovarian cancer, versus GnRH-I (ovarian cancer cells; ref [33]): stronger anti-proliferative effect than that of GnRH-I

CC(=O)N[C@H](Cc1ccc2ccccc2c1)C(=O)N[C@H](Cc1ccc(Cl)cc1)C(=O)N[C@H](Cc1cccnc1)C(=O)N[C@@H](CO)C(=O)N[C@@H](Cc1ccccc1)C(=O)N[C@H](CCCCN)C(=O)N[C@@H](Cc1c[nH]c2ccccc12)C(=O)N[C@@H](Cc1ccc(O)cc1)C(=O)N[C@@H](CCCNC(=N)N)C(=O)N[C@H](C)C(N)=O [SN09-2, Ac-D-Nal(2)-D-phe(4Cl)-D-Pal(3)-Ser-Phe-D-Lys-Trp-Tyr-Arg-D-Ala-NH2] (Ac-[d2Nal][dPhe(4-Cl)][d3Pal]SF[dK]WYR[dA]-NH2)
growth inhibition of PC3 cells (PC3 cells [3]; 5% serum, 4 days): 91%
growth inhibition of PC3 cells (PC3 cells [3]; 10% serum, 4 days): 88%
growth inhibition of PC3 cells (PC3 cells [3]; higher serum concentrations, 4 days): more than 85%
growth inhibition of PC3 cells (PC3 cells [3]; low serum concentrations (less than 2% FBS), within 4 days): more than 95%
growth inhibition of DU145 cells (DU145 cells): ≈ 50%
IC50 [4]: 1.9 µM
liver and kidney histopathology ([5]; after 25 days subcutaneous treatment): no histo-pathological abnormalities
serum alkaline phosphatase, aspartate aminotransferase, alanine aminotransferase, urea nitrogen, creatinine, total bilirubin ([5]; after 25 days subcutaneous treatment, data not shown): did not differ between vehicle and SN09-2-treated mice
skin irritation / densely populated cells at the injection site ([5]; mice, several days after subcutaneous injection): no skin irritation or densely populated cells were detected
edema-like phenotype ([5]; mice, subcutaneous treatment): not observed
adverse effects to the animal ([5]; xenograft model): without any apparent adverse effects
solubility in 5% DMA ([6]; 5% N,N′-dimethylacetamide (DMA) formulation): appeared well dissolved
solubility in DMSO ([6]; DMSO, solvent for in vitro treatment): dissolved well in DMSO

Ac-[d2Nal][dPhe(4-Cl)][d3Pal]SY[dCit]WYP[dA]-NH2 [Trp-1, GnRH-II antagonist of the authors' earlier report]
PC3 cell growth inhibition, dose response (PC3 cells [3]; different concentrations, 5% serum, 3 days, versus DMSO control): significantly attenuated cell growth in a dose-dependent manner
mitochondrial accumulation in presence of unlabeled GnRH-II (PC3 cells [1]): attenuated by unlabeled GnRH-II
antagonism of GnRH-II at gmGnRHR-II ([4]; CV-1 cells, SRE-luc reporter, GnRH-II 10 nM, antagonist 6 h, luciferase normalized to β-gal, at least three independent experiments): partial
IC50 [7]: 0.25 µM
inhibitory activity on tumor volume (PC3 xenograft tumor; 0.1 mg, PC3 xenograft, quoted comparison, ref [28]): 60%
growth of tumor formed by implanted PC3 cells (PC3 xenograft tumor): inhibited growth of the tumor
autophagic cell death (prostate cancer cells [8]): induces autophagic cell death
cytochrome c release (cytochrome c (PC3 cells)): does not induce
activation of the apoptotic machinery (caspase-3 (PC3 cells); previous results): could not trigger the activation of the apoptotic machinery
caspase-3 activation (caspase-3 (PC3 cells)): does not induce

GnRH-I: gonadotropin-releasing hormone-I synthesized in the hypothalamus
displacement of radiolabeled GnRH-II binding (prostate cancer cells [2]): not by GnRH-I
